In ChEMBL document CHEMBL6127154, “Pursuing Polypharmacology: Benzothiopyranoindoles as G-Quadruplex Stabilizers and Topoisomerase I Inhibitors for Effective Anticancer Strategies” (ACS Med Chem Lett, 2024):
Activity calls are given as the source filed them. No cut-off for these calls is given here.

Key:
Quadruplex DNA [1] = assay: Thermal stabilization of human c-Kit2 G4 quadruplex DNA assessed as change in melting temperature (deltaT1/2) incubated for 10 mins by circular dichroism spectroscopic analysis (reference value: 62.4 +/-0.1 degreeC); type: nucleic-acid assay
Quadruplex DNA [2] = assay: Thermal stabilization of human c-Myc G4 quadruplex DNA assessed as change in melting temperature (deltaT1/2) incubated for 10 mins by circular dichroism spectroscopic analysis (reference value: 70.5 +/- 0.1 degreeC); type: nucleic-acid assay
Quadruplex DNA [3] = assay: Thermal stabilization of human Tel23-p G4 quadruplex DNA assessed as change in melting temperature (deltaT1/2) incubated for 10 mins by circular dichroism spectroscopic analysis (reference value: 68.2 +/- 0.1 degreeC); type: nucleic-acid assay
Quadruplex DNA [4] = assay: Thermal stabilization of human Tel23-hy G4 quadruplex DNA assessed as change in melting temperature (deltaT1/2) incubated for 10 mins by circular dichroism spectroscopic analysis (reference value: 48 +/- 0.1 degreeC); type: nucleic-acid assay
Quadruplex DNA [5] = assay: Thermal stabilization of human Tel26-hy G4 quadruplex DNA assessed as change in melting temperature (deltaT1/2) incubated for 10 mins by circular dichroism spectroscopic analysis (reference value: 55.4 +/- 0.1 degreeC); type: nucleic-acid assay
HCT-116 [6] = assay: Induction of DNA damage in human HCT-116 cells assessed as increase in gammaH2AX level incubated for 24 hrs by immunofluorescence staining based analysis; type: functional, cell-based
HCT-116 [7] = assay: Induction of DNA damage in human HCT-116 cells assessed as increase in 53BP1 foci positive cells incubated for 24 hrs by immunofluorescence staining based analysis; type: functional, cell-based

| SMILES | ΔTm (Quadruplex DNA [1]) [°C] | ΔTm (Quadruplex DNA [2]) [°C] | ΔTm (Quadruplex DNA [3]) [°C] | ΔTm (Quadruplex DNA [4]) [°C] | ΔTm (Quadruplex DNA [5]) [°C] | Activity (HCT-116 [6]) | Activity (HCT-116 [7]) |
| --- | --- | --- | --- | --- | --- | --- | --- |
| COc1ccc2cc3[n+](cc2c1OC)CCc1cc2c(cc1-3)OCO2 | > 20 | 15.5 | > 20 | 12.7 | 6.8 | – | – |
| CC[C@@]1(O)C(=O)OCc2c1cc1n(c2=O)Cc2cc3ccccc3nc2-1 | – | – | – | – | – | Active | Active |
